{"source": "patent US20090286738A1", "about": "“Gene Regulation” (ST. GEORGE'S ENTERPRISES LIMITED, priority 2005, published 2009)", "key": {"[1]": {"test_system": "B16 tumours", "assay": "QPCR of RNA extracted from treated B16 tumours", "assay_type": "in vivo, mice", "conditions": "IP 15 mg/Kg, two hours after treatment", "description": "FIG. 10. […] RNA extracted from (a) B16 cells cultured in vitro and treated with 60 μM peptide for two hours, and (b) B16 tumours treated with peptide injected IP at 15 mg/Kg body weight; tumours were excised and RNA was extracted two hours after treatment. Results are expressed as a proportion of the level of β-actin transcripts. For (a), the results are an average of 2 separate experiments, for (b), the results are an average for tumours taken from three individual mice. U, untreated; C, CX2Arg9(2D) treated; H, HXArg9(2D) treated. Error bars represent the standard error of the mean.\n(§1) In order to assess whether the hexapeptide could block HOX/PBX binding in vivo, tumours were treated with HXArg9 for two hours and then used to produce nuclear lysates."}, "[2]": {"test_system": "A549 tumours", "assay": "Treatment of A549 tumours in vivo", "parameters": "species or system mice", "conditions": "twice weekly, 100 mg/kg followed by 10 mg/kg", "description": "FIG. 13. Treatment of A549 tumours in vivo. Nude mice were injected with one million A549 cells subcutaneously and treatment was started when tumours reached an average volume of 100 mm^3. […] (a) intralesional (IT) administration, (b) intraperitoneal (IP) administration.\n(§2) Control groups received control peptide and PBS accordingly. For the A549 tumour model, […] were used to establish flank models. This study was conducted by Perry Scientific Inc., USA.\nWe also examined whether HXArg9 could block the growth of a non-melanoma tumour in vivo. In order to do this, we established flank tumours using the non-small cell lung cancer derived cell line A549 (Lieber, M., et al. Int. J. Cancer 17, 62-70 (1976)) in nude mice."}, "[3]": {"test_system": "B16 tumours", "assay": "Treatment of murine B16 tumours in vivo", "parameters": "species or system mice", "conditions": "15 mg/kg intraperitoneal", "description": "FIG. 12. Treatment of murine B16 tumours in vivo. Mice were injected with one million B16 cells subcutaneously and treatment was started when tumours first became palpatable (day 1=first day after treatment). Mice were injected once daily for four days with an intraperitoneal dose of 15 mg/kg. (a) Changes in tumour size over treatment period (n=4). (b) Histological sections of tumours from HXArg9(2D) (HXR9) and CX2Arg9(2D) (CXR9) treated mice at the end of treatment.\nMice were maintained at the Biological Resource Facility at St. George's. Their care was in accordance to Home Office regulations. B16 cells in exponential growth phase were injected subcutaneously at a dose of 1×10^6 cells into C57black/6 mice. Tumour growth was monitored daily. Once tumours were established, mice received 15 mg/kg HXArg9(2D) intraperitoneal. Mice were euthanised and tumours excised and fixed for histopathological analysis.\nas §2\nThe B16 F10 murine tumour is a well established in vivo model of melanoma, and is also one of the most aggressive murine tumours (Fidler, I. J. & Nicolson, G. L. Isr. J. Med. Sci. 14, 38-50 (1978), Shrayer, D. et al. Cancer Immunol Immunother. 40, 277-282 (1995)). […]"}, "[4]": {"assay": "Stability of peptides in human plasma at 37° C., SDS-PAGE", "assay_type": "in vitro ADME", "description": "Peptides were incubated in human serum for the times shown and then visualised on a Coomassie brilliant blue stained gel. The arrow heads indicate the position of intact peptide. Standard=peptide only in this lane as a marker.\nThe stability of HXArg9(2D) and CX2Arg9(2D) was assessed by incubation each with human plasma at 37° C. and the amount of peptide remaining after different amounts of time was assessed by SDS-PAGE. Each peptide was added to freshly prepared human plasma to a final concentration of 1 mM in a total volume of 40 μl. Samples were incubated at 37° C. and reactions were stopped by adding 60 μl of water and 0.9 ml of protein gel loading buffer (BioRad, USA) containing 1% 2-mercaptoethanol, and heating to 95° C. for four minutes. 2 μl of each sample was run on a 22% acrylamide gel. […] This compared with a half life of approximately 40 minutes for the L isomer form HXArg9."}, "[5]": {"test_system": "HOX/PBX/DNA complexes", "assay": "Band shift assay, protein extracted from treated B16 tumours", "assay_type": "in vivo, mice", "conditions": "tumours treated for two hours", "description": "Double stranded oligodexoynucleotide probes were incubated in protein extracted from B16 tumours. One of these probes (HP) contained a HOX/PBX consensus binding region (bold)—5′ CTGTTTGATT TATTTGTTTA 3′. A second, control probe (CP) contained an altered HOX/PBX binding site that is not predicted to bind HOX and PBX proteins—5′ CTGTTACTGA CGATTGTTTA 3′. […] The mobility of CP was unchanged by incubating with the protein extract (lane 11). […] U, untreated; C, CX2Arg9(2D) treated; H, HXArg9(2D) treated; +HP, the HP probe was added to the lysates with an excess of unlabelled probe as shown (0, 5 fold, or 25 fold); +CP, control probe added to lysates; ‘+anti PBX’, anti-PBX antibody added to lysate; ‘+block pep’, a blocking peptide was added to the lysate that blocks anti-PBX antibody from binding to PBX.\nas §1"}, "[6]": {"test_system": "malignant cell lines (B16 mouse melanoma, LNCAP human prostate cancer, K562)", "assay": "Activity of peptides on different malignant cell lines, living and dead cells after 3 hours (FIGS. 6 to 8)", "assay_type": "cell-based", "conditions": "further experiments", "description": "(§3) The peptides as indicated were applied to the cells at a concentration of 60 μM (FIG. 6A) or 6 μM (FIG. 6B). In both experiments the HXArg9, CX1Arg9 and CX2Arg9 peptides used were the (2D) variant peptides in which the N- and C-terminal amino acids are in the D conformation and all remaining amino acids are in the L conformation. The number of living and dead cells were assessed after 3 hours. Black bars=% or number of cells dead. White bars=% or number of cells alive.\nas §3, with “7A)” for “6A)”, “7B).” for “6B).”\nas §3, with “μM. HXArg9(2D) is” for “μM (FIG. 6A) or 6 μM (FIG. 6B). In both experiments”, “variant form of HXArg9 in which the N-terminal and C-terminal amino acids are in the D conformation and the remaining amino acids are in the L conformation. HXArg9 consists of only L-conformation amino acids. The” for “HXArg9,”, “bars=%” for “bars=% or number of”\n(§4) Cell lines were seeded at 4×10^4 cells/ml in liquid culture system made of RPMI-1640 medium (Life Technologies, UK) supplemented with Foetal Calf Serum (10% Sigma Aldrich) and penicillin/streptomycin (1%, Sigma) and at least in duplicate. When required the test peptide was added to the medium. Cell lines were cultured for up to 7 days at 37° C., 5% CO2 in humidified atmosphere. Cultured cells were then assessed for cell viability/enumeration using trypan blue exclusion (Sigma Aldrich).\nThe activity of the peptides described above was tested on a number of different malignant cell lines using a similar assay to that described previously."}, "[7]": {"test_system": "B16 murine melanoma cells", "assay": "Living and dead B16 cells after 3 hours (FIGS. 2A, 9)", "assay_type": "cell-based", "conditions": "3 hours", "description": "In FIG. 2A the peptides as indicated were applied to the cells at a concentration of 60 μM. The number of living and dead cells were assessed after 3 hours. Black bars=number of cells dead. White bars=number of cells alive.\nas §3\nThe HXArg9 peptide used was the (2D) variant peptide in which the N- and C-terminal amino acids are in the D conformation and all remaining amino acids are in the L conformation. HXArg9 was applied to the cells at a variety of concentrations (μM), and the number of dead and living cells was assessed after 3 hours. Black bars=% cells dead. White bars=% cells alive.\nas §4"}}, "data": [{"smiles": "CSCC[C@H](NC(=O)[C@H](Cc1c[nH]c2ccccc12)NC(=O)[C@@H]1CCCN1C(=O)[C@H](Cc1ccc(O)cc1)NC(=O)[C@@H](N)Cc1c[nH]c2ccccc12)C(=O)N[C@@H](CCCCN)C(=O)N[C@@H](CCCCN)C(=O)N[C@@H](Cc1c[nH]cn1)C(=O)N[C@@H](Cc1c[nH]cn1)C(=O)N[C@@H](CCCNC(=N)N)C(=O)N[C@@H](CCCNC(=N)N)C(=O)N[C@@H](CCCNC(=N)N)C(=O)N[C@@H](CCCNC(=N)N)C(=O)N[C@@H](CCCNC(=N)N)C(=O)N[C@@H](CCCNC(=N)N)C(=O)N[C@@H](CCCNC(=N)N)C(=O)N[C@@H](CCCNC(=N)N)C(=O)N[C@@H](CCCNC(=N)N)C(=O)O", "note": "[HXArg9, WYPWMKKHHRRRRRRRRR]", "values": [{"measurement": "transcripts of Fos, Jun, Dusp1 and Atf3 (QPCR)", "setting": "[1]", "value": "upregulated"}, {"measurement": "tumour growth", "setting": "[2]", "value": "significant reduction in tumour growth"}, {"measurement": "histological analysis of excised tumours", "setting": "[3]", "value": "inner cell death"}, {"measurement": "tumour size at end point", "setting": "[3]; once daily for four days", "value": "significant degree of shrinkage"}, {"measurement": "half-life", "setting": "[4]", "value": "~40", "unit": "min"}, {"measurement": "binding of tumour protein extract to HOX/PBX consensus probe", "setting": "[5]", "value": "could not bind a DNA probe containing a HOX/PBX consensus binding site"}, {"measurement": "effectiveness in preventing cellular proliferation compared with HXP4", "setting": "[6]", "value": "as effective as HXP4"}, {"measurement": "ablation of cells", "setting": "[7]; 4.625 μM", "value": "significant ablation"}, {"measurement": "ablation of cells", "setting": "[7]; 37 μM", "value": "ablation of substantially all"}, {"measurement": "ablation of cells", "setting": "[7]; 74 μM", "value": "ablation of substantially all"}]}]}
